Assay results from patent US20060258713A1, “Treatment of pain” (Wyeth, priority 2005, published 2006).

Tested on: Male Sprague-Dawley rats
Test: L5 spinal nerve ligation (SNL) tactile allodynia model, von Frey thresholds
Format: in vivo, rat
Settings: 0.3, 1 or 3 mg/kg i.p., thresholds up to 60, 180 and 300 minutes after dosing, reversal of tactile allodynia, FIG. 1
Experimental: Compound 1, (7-(2,6-dichlorophenyl)-5-fluoro-2,3-dihydrobenzofuran-2-yl)methanamine, was obtained from Wyeth compound repository and gabapentin was purchased from Toronto Research Chemicals (Ontario, Canada) and […]. Compound 1 was dissolved in sterile saline and gabapentin was suspended in 2% Tween 80 in 0.5% methylcellulose and sterile water. All compounds were administered intraperitoneally (i.p.).
Male Sprague-Dawley rats (125-150 g, Harlan; Indianapolis, Ind.) were individually housed on bedding. For all studies animals were maintained in climate-controlled rooms on a 12-hour light/dark cycle (lights on at 0630) with food and water available ad libitum. […]
Assessment of Tactile Allodynia (Tactile Sensitivity): Tactile thresholds were assessed using a series of calibrated von Frey monofilaments (Stoelting; Wood Dale, Ill.). The threshold that produced a 50% likelihood of a withdrawal was determined using the up-down method, as previously described (Chaplan et al., 1994).
Animals were placed in elevated wire cages and allowed 45-60 minutes to acclimate to the testing room. […] The lowest force that evoked a brisk withdrawal response to the stimuli determined the pain threshold. Tactile thresholds were determined on the day prior to surgery and rats with baseline thresholds <10 g force were excluded from studies. […]

## NCC1Cc2cc(F)cc(-c3c(Cl)cccc3Cl)c2O1 (stereo not shown) [Compound 1, (7-(2,6-dichlorophenyl)-5-fluoro-2,3-dihydrobenzofuran-2-yl)methanamine]
  effectiveness in the tactile allodynia model: effectiveness
